Measurements reported in patent US20110177179A1, “PREPARATION OF BOTANICAL EXTRACTS CONTAINING ABSORBABLE COMPONENTS USING PHARMACEUTICAL PLATFORM TECHNOLOGY” (SINOVEDA CANADA, INC., priority 2010, published 2011).
Read-outs that look alike come from different tables or passages of the source.

Columns and labels:
[1] = test system: MDCK cells; assay: Permeability of extract components through MDCK cell monolayer; assay type: in vitro ADME; conditions: for permeability versus molecular weight trend: Rhodiola 80% methanol extract
Description: Both CaCo-2 and MDCK cells were purchased form American Type Culture Collection (ATCC) and cultured with Dulbecco Modified Eagle's Media (DMEM) supplemented with 10% fetal bovine serum, 1% non-essential amino acids, and 10 mM HEPES. All tissue culture media and supplements were purchased from Sigma-Aldrich. Following Yee's method (Yee 1997), CaCo-2 cells were seeded into transwell culture dishes and cultured for 21 days. Lin et al's. (2003) method was used to seed and culture MDCK cells; the culturing period was three days.
(§1) Two natural products: Rhodiola rosea and Red yeast rice were individually extracted using the three solvents described in Example 1. Each extract was dissolved in Hanks' balanced salt buffer supplemented with 20 mM HEPES at 1 mg/ml. Permeability studies were carried out using MDCK cells and samples were taken from the apical side at 0 minute and 60 minutes and from the basal side at 60 minutes after incubation. Samples were diluted with a 1:1 mixture of methanol and acetonitrile prior to analysis using a LC/MS system. Permeability coefficient number was calculated as follows: Peff (cm/sec)=(Vr/(A*Cs))*(Cf/t), where Vr is the receiver side volume (basal; ml), A is the area of monolayer (cm^2), Cs is the starting concentration at the donor side (μM), Cf is the concentration at the receiver side at time t (μM), and t is the incubation time (seconds).
as §1, with “The extracts of” for “Two natural products: Rhodiola rosea and”, “clover” for “yeast rice”, “individually” for “individually extracted using the three solvents described in Example 1. Each extract was”, “(cm/sec)=(Vr/(A*C,))*(Cf/t),” for “(cm/sec)=(Vr/(A*Cs))*(Cf/t),”

[2] = test system: colonic bacteria; assay: Metabolism by colonic (intestinal) bacteria, anaerobic incubation with fecal sample; assay type: in vitro ADME, rat; conditions: for metabolism by colonic bacteria (change in level): Red clover methanolic extract, anaerobic, 37° C., up to 24 hours
Description: The effect of colonic bacteria on the stability of a methanolic extract of Red clover was evaluated. The procedures reported by Schneider et al. (Schneider, Simmering et al. 2000) was used to prepare a fecal sample collected from a rat. The extract was incubated anaerobically at 37° C. for a period of 24 hours.

[3] = major component of Chuanxiong; Yan, Ko et al. 2008; cited from earlier work
[4] = Hollman, van Trijp et al. 1997; cited from earlier work
[5] = after 6 hours of incubation with colonic bacteria
[6] = Rhodiola rosea extracts, 1 mg/ml, 60 minutes, p<0.05

hydroxyrosavin
permeability, 80% methanol extract as opposed to water extract ([1]; MDCK): significantly different

Oc1ccc([C@H]2COc3cc(O)ccc3C2)cc1 [Equol]
metabolism by colonic bacteria (change in level) [2]: appeared shortly after incubation | species left in the incubate [2, 5]: major species left

O[C@@H]1[C@@H](O)[C@H](OC/C=C/c2ccccc2)O[C@H](CO[C@@H]2OC[C@H](O)[C@H](O)[C@H]2O)[C@H]1O [rosavin]
permeability versus molecular weight trend ([1]; 1 mg/ml, 60 minutes): deviated significantly from the trend | permeability, 80% methanol extract as opposed to water extract [1, 6]: significantly different

OC[C@@H]1O[C@@H](OC[C@H]2O[C@@H](OC/C=C/c3ccccc3)[C@H](O)[C@@H](O)[C@@H]2O)[C@H](O)[C@H]1O [rosarin]
permeability versus molecular weight trend ([1]; 1 mg/ml, 60 minutes): deviated significantly from the trend | permeability, 80% methanol extract as opposed to water extract [1, 6]: significantly different

COc1ccc(-c2coc3cc(O)ccc3c2=O)cc1 [formononetin]
metabolism by colonic bacteria (change in level) [2]: increase | species left in the incubate [2, 5]: major species left

CC[C@H](C)C(=O)O[C@H]1C[C@@H](C)C=C2C=C[C@H](C)[C@H](CC[C@@H]3C[C@@H](O)CC(=O)O3)[C@H]21 [monacolin K]
permeability, comparison of water, 80% methanol and hexane extracts ([1]; Red yeast rice extracts, 1 mg/ml, 60 minutes): highest in the hexane extract

CCC/C=C1\OC(=O)C2=C1CCC=C2 [z-ligustilide]
bioavailability [3]: less than 3%

COc1ccc(-c2coc3cc(O)cc(O)c3c2=O)cc1 [biochanin A]
species left in the incubate [2]: major species left

C[C@@H]1O[C@@H](OC[C@H]2O[C@@H](Oc3c(-c4ccc(O)c(O)c4)oc4cc(O)cc(O)c4c3=O)[C@H](O)[C@@H](O)[C@@H]2O)[C@H](O)[C@H](O)[C@H]1O [Rutin]
detection in the blood stream [4]: not detected
